Test results as given in the supplement of paper PMC12420376.

Columns and labels:
[1] = tested on: OVCAR8; assay: drug sensitivity score (DSS2) on cancer cell count; higher = more sensitive; extreme values may be limits of the assay; settings: 72 h
In short: (§1)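 Screen quality was checked by Z', and a drug sensitivity score was derived in Breeze from logistic fits of the cancer cell counts. These counts were obtained by imaging at 10× (4 fields) after fixing and immunostaining for CK8/18 with Hoechst. Before that, ovarian cancer cells, alone or in 1:1 direct co-culture with lung or skin fibroblasts, had been treated for 72 h on 384-well plates acoustically pre-spotted with 528 approved and investigational compounds at 5 concentrations.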

[2] = tested on: KURAMOCHI; assay: as above; settings: 72 h
In short: as §1

[3] = co-cultured fibroblast: BJHTERT
[4] = co-cultured fibroblast: none (monoculture)

Structure (SMILES) | drug sensitivity score [1, 3] [DSS] | drug sensitivity score ([1]; co-cultured fibroblast: WI38) [DSS] | drug sensitivity score [1, 4] [DSS] | drug sensitivity score [2, 3] [DSS] | drug sensitivity score ([2]; co-cultured fibroblast: WI38) [DSS] | drug sensitivity score [2, 4] [DSS]
CC[C@]12C=CCN3CC[C@@]4(c5cc([C@@]6(C(=O)OC)C[C@@H]7C[C@@H](C(C)(F)F)CN(Cc8c6[nH]c6ccccc86)C7)c(OC)cc5N(C)[C@H]4[C@@](O)(C(=O)OC)[C@@H]1OC(C)=O)[C@@H]32 [Vinflunine] | 6.9 | 3.7 | 3.9 | 3.1 | 7 | 7.9
C[C@@H]1CN(C(=O)c2ccc(NC(=O)c3cc(O[C@H](C)c4c(Cl)ccc(F)c4Cl)c(N)nn3)cc2)C[C@H](C)N1 [Ensartinib] | 0 | 0.1 | 0 | 1 | 1 | 0
CC(O)(CS(=O)(=O)c1ccc(F)cc1)C(=O)Nc1ccc(C#N)c(C(F)(F)F)c1 (centres undefined) [Bicalutamide] | 0.1 | 0 | 0 | 0 | 0 | 0
CCOC(=O)CCNc1cc(N2CCc3ccccc3CC2)nc(-c2ccccn2)n1 [GSK-J4] | 1.6 | 0.3 | 4.2 | 3.1 | 2.7 | 10.5
c1cc(CN2CCCNCCNCCCNCC2)ccc1CN1CCCNCCNCCCNCC1 [Plerixafor] | 0.5 | 0 | 0.3 | 0 | 0 | 0.6
COc1cc(NS(C)(=O)=O)ccc1Nc1c2ccccc2nc2ccccc12 [Amsacrine] | 20.1 | 19.2 | 23.8 | 14.4 | 18.8 | 21.8
CCNc1nc(Nc2cc(F)c(C(=O)N3CCOCC3)cc2OC)ncc1C(F)(F)F [GNE-7915] | 0 | 0 | 0 | 0 | 0 | 0
Cc1cc(Nc2ncc(Cl)c(Nc3ccccc3S(=O)(=O)C(C)C)n2)c(OC(C)C)cc1C1CCNCC1 [Ceritinib] | 1.8 | 0 | 3.7 | 1.3 | 0 | 2.2
Cc1nc2cccc(N)c2c(=O)n1C1CCC(=O)NC1=O (centres undefined) [CC122] | 0 | 0 | 0 | 0 | 0 | 0
Cc1cn(-c2cc(NC(=O)c3ccc(C)c(Nc4nccc(-c5cccnc5)n4)c3)cc(C(F)(F)F)c2)cn1 [Nilotinib] | 0 | 11 | 3 | 0 | 8 | 9.8
Cc1noc2c1-c1ccccc1C(c1ccc(Cl)cc1)=N[C@H]2CC(N)=O [CPI-0610] | 10.9 | 6.5 | 13.8 | 0 | 8.5 | 5.7
C[C@@]1(C(=O)Nc2ccc(F)nc2)CCCN1c1nc(Nc2cc(C3CC3)n[nH]2)c2cccn2n1 | 11.6 | 13 | 14 | 13.3 | 5.5 | 10.8
COc1cc(Br)c(Nc2nc(-c3c(C)nc4ncccn34)cs2)c(Br)c1 [PTC-209] | 9.1 | 3.1 | 6.9 | 2.4 | 3.6 | 7.9
O=C1c2c(O)ccc(O)c2C(=O)c2c(NCCNCCO)ccc(NCCNCCO)c21 [Mitoxantrone] | 20.4 | 17 | 18.1 | 17.1 | 13.3 | 23.6
Nc1ncn([C@@H]2O[C@H](CO)[C@@H](O)[C@H]2O)c(=O)n1 [Azacitidine] | 3.9 | 1.5 | 8.9 | 2.8 | 2.6 | 9.3
CO[C@H]1C[C@@H]2CC[C@@H](C)[C@@](O)(O2)C(=O)C(=O)N2CCCC[C@H]2C(=O)O[C@H]([C@H](C)C[C@@H]2CC[C@@H](OCCO)[C@H](OC)C2)CC(=O)[C@H](C)/C=C(\C)[C@@H](O)[C@@H](OC)C(=O)[C@H](C)C[C@H](C)/C=C/C=C/C=C/1C [Everolimus] | 8.4 | 0 | 2.2 | 5.6 | 5.6 | 0
Oc1nc(-c2ccc(C(F)(F)F)cc2)nc2c1CSCC2 [XAV-939] | 0.6 | 0.1 | 0.3 | 1.1 | 0 | 0.5
Cc1ccc(C(=O)Nc2ccc(Oc3cc4cnn(C)c4cc3-c3cn[nH]c3)c(F)c2)c(=O)n1-c1ccc(F)cc1 [Merestinib] | 0 | 0 | 0.1 | 0 | 1.5 | 1.5
CC[C@H](C)C(=O)O[C@H]1C[C@H](O)C=C2C=C[C@H](C)[C@H](CC[C@@H](O)C[C@@H](O)CC(=O)O)[C@H]21 [Pravastatin] | 0 | 1.9 | 0 | 0 | 0 | 0
Cn1cc(-c2cnn3c(N)c(Br)c([C@@H]4CCCNC4)nc23)cn1 [MK-8776] | 7.8 | 0.2 | 0 | 1.2 | 0 | 1.6

Structure (SMILES) | drug sensitivity score [1, 3] [DSS] | drug sensitivity score ([1]; co-cultured fibroblast: WI38) [DSS] | drug sensitivity score [1, 4] [DSS] | drug sensitivity score [2, 3] [DSS] | drug sensitivity score ([2]; co-cultured fibroblast: WI38) [DSS] | drug sensitivity score [2, 4] [DSS]
CN1CCN(c2cc(C(=O)Nc3ccc4c(c3)-c3c(c(C(N)=O)nn3-c3ccc(F)cc3)CC4)c(Cl)cn2)CC1 [PHA 408] | 0.5 | 8.6 | 4.8 | 5.8 | 1.9 | 1.6
O=C(O)CCCCC(CCSCc1ccccc1)SCc1ccccc1 (centres undefined) [CPI-613] | 0 | 1.3 | 0 | 0 | 0 | 0
O=C(O)CC[C@H]1CC[C@@](c2cc(F)ccc2F)(S(=O)(=O)c2ccc(Cl)cc2)CC1 [MK-0752] | 3.7 | 0 | 0 | 0 | 0 | 0
CCn1c(C(=O)N(C2CC2)C2CC2)cc2c3c(ncn3C)c(Nc3cc(C)n(C)n3)nc21 | 0 | 1.1 | 1.3 | 3 | 1.5 | 0
Cn1cc(C[C@@H](N)C(=O)O)c2ccccc21 [1-methyl-D-tryptophan] | 0 | 0 | 0 | 0 | 0 | 10.3
COc1cc2/c(=N/c3ccc(Br)cc3F)nc[nH]c2cc1OCC1CCN(C)CC1 [Vandetanib] | 0 | 0 | 2.1 | 0 | 2.6 | 10.6
C[C@@H](Oc1cc(-n2cnc3ccc(CN4CCN(C)CC4)cc32)sc1C(N)=O)c1ccccc1C(F)(F)F | 42.4 | 32.3 | 31 | 28 | 27.7 | 25.3
Nc1cc(F)ccc1NC(=O)/C=C/c1cnn(C/C=C/c2ccccc2)c1 [RGFP966] | 1.6 | 0.6 | 4.4 | 3.9 | 6 | 4
COc1cc2ncnc(Nc3ccc(F)c(Cl)c3)c2cc1OCCCN1CCOCC1 [Gefitinib] | 5.8 | 0 | 3.7 | 2.9 | 3 | 0
Cc1ccc(C(=O)Nc2cccc(C(F)(F)F)c2)cc1Nc1nc(-c2cccnc2)nc2c1cnn2C [NVP-BHG712] | 0 | 6.8 | 7.5 | 5.8 | 6.7 | 8.9
CC[C@H](Nc1ncnc2[nH]cnc12)c1nc2cccc(F)c2c(=O)n1-c1ccccc1 [Idelalisib] | 2.9 | 0 | 0.3 | 10.9 | 5.5 | 3.9
COc1cc2c(NC3CCN(C(C)C)CC3)nc(N3CCC(F)(F)CC3)nc2cc1OCCCN1CCCC1 [UNC0642] | 8 | 0 | 2.2 | 1.5 | 0.7 | 0.1
COc1ccc(CCc2nc3cc(-c4c(C)noc4C)ccc3n2C[C@H](C)N2CCOCC2)cc1Cl [SGC-CBP30] | 9.9 | 1.7 | 4.5 | 5.7 | 1.3 | 3.2
CCCCCCCCCCCCCCCCOP(=O)([O-])OCC[N+](C)(C)C [Miltefosine] | 8.4 | 7.3 | 5.7 | 4.4 | 7.4 | 5
COc1cc(N2CCC(N3CCN(C)CC3)CC2)ccc1Nc1ncc(Cl)c(Nc2ccccc2P(C)(C)=O)n1 [Brigatinib] | 4.3 | 7.9 | 2.2 | 0.1 | 0 | 0
O=C(CCCCCCC(=O)Nc1ccc([C@H]2O[C@@H](CSc3nc(-c4ccccc4)c(-c4ccccc4)o3)C[C@@H](c3ccc(CO)cc3)O2)cc1)NO [Tubacin] | 5 | 1.5 | 6.2 | 1.1 | 6.7 | 7
CN1CCN(c2nc(C3=C(c4c[nH]c5ccccc45)C(=O)NC3=O)c3ccccc3n2)CC1 [Sotrastaurin] | 0.2 | 2.6 | 0 | 1.1 | 0.6 | 12
CC1(C)OCCn2c1nc1c(N3CCOCC3)nc(-c3cnc(N)nc3)nc12 [GDC-0084] | 8.3 | 3.8 | 11.9 | 12.7 | 11.5 | 12.1
Cc1ccc(F)c(NC(=O)Nc2ccc(-c3cccc4[nH]nc(N)c34)cc2)c1 [Linifanib] | 0 | 0 | 0.5 | 0 | 0 | 0
